Patent US10683297B2 (Sunshine Lake Pharma Co., Ltd., priority 2017, dated 2020)

Experiments:
[1] = Compound stability in rat liver microsomes; assay type: in vitro ADME; conditions: for CLint scaled at 5 μM: liver microsomes, pH 7.4, in vivo CLint extrapolated from rat liver microsome incubation; for half-life at 5 μM: read-out: Rat T1/2
Procedure, shortened: (§1)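 Compounds (5 μM) incubated at 37 °C with human or rat liver microsomes (0.5 mg protein/mL) and 1.0 mM NADPH in 100 mM phosphate buffer pH 7.4, 0.05% DMSO, in duplicate. Sampled 0–60 min, quantified by LC/MS/MS as % of time zero; CLint extrapolated.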

JAK1 (h) = target: T1, JAK1 (h) (Homo sapiens, UniProt P23458); experiment: JAK1 (h) kinase assay; assay type: biochemical; conditions: [γ-33P-ATP] 10 μM or KM values; 40 minutes at room temperature
T1 construct: purchased Millipore UK Ltd (assays performed there as a service)
T1 sequence (P23458 whole entry): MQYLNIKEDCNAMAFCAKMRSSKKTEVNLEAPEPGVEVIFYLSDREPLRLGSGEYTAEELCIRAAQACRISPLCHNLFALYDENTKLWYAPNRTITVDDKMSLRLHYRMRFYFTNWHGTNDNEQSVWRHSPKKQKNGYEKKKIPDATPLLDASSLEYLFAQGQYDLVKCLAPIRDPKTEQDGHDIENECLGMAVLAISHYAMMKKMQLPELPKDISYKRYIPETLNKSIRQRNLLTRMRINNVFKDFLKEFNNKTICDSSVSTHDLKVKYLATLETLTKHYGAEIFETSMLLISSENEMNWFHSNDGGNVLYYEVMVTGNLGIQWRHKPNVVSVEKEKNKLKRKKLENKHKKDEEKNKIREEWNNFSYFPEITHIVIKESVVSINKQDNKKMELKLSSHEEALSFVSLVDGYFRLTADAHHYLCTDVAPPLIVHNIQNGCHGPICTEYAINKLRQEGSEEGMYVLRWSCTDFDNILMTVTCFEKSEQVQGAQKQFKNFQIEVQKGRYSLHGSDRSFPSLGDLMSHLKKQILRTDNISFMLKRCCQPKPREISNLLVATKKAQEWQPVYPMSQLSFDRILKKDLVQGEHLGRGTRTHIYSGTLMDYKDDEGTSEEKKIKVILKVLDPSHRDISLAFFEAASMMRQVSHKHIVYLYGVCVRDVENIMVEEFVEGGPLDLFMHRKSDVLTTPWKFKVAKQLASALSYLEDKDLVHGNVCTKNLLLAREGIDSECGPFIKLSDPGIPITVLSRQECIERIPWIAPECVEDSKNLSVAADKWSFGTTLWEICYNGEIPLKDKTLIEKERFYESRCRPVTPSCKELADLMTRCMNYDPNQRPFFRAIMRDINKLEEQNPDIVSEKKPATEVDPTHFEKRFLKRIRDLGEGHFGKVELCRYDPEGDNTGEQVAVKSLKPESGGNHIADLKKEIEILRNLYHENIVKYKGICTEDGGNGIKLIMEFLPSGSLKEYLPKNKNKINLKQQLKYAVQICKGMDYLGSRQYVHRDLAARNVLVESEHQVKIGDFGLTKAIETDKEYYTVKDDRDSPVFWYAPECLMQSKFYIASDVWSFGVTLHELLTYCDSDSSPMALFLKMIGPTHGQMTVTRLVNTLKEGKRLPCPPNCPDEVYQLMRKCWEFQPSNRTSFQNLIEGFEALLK
Procedure, shortened: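 Radiometric filter-binding assay: human JAK1 incubated 40 min at room temperature in 20 mM Tris/HCl pH 7.5, 0.2 mM EDTA, 500 μM peptide substrate, 10 mM Mg acetate, with [γ-33P]ATP at 10 μM or KM. Reaction stopped with phosphoric acid; P30 filtermat scintillation counting.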

[2] = Compound stability in human liver microsomes; assay type: in vitro ADME; conditions: for half-life at 5 μM: human liver microsomes 0.5 mg protein/mL, compound 5 μM, NADPH 1.0 mM, pH 7.4, 37° C., read-out: Human T1/2; for CLint scaled at 5 μM: liver microsomes, pH 7.4, in vivo CLint extrapolated from human liver microsome incubation
Procedure, shortened: as §1

[3] = rat liver microsomes 0.5 mg protein/mL, compound 5 μM, NADPH 1.0 mM, pH 7.4, 37° C.

| CLint scaled at 5 μM [1] [mL/min/kg] | half-life at 5 μM [1, 3] [h] | IC50 (JAK1 (h)) [nM] | half-life at 5 μM [2] [h] | CLint scaled at 5 μM [2] [mL/min/kg] | Rat T1/2 [1, 3] | SMILES |
| --- | --- | --- | --- | --- | --- | --- |
| 32.5 | 1.27 | < 0.3 | 1.05 | 27.5 |  | Cn1cnc2cc(Nc3ncc(Cl)c(NC4CCN(c5ccc(C#N)cn5)CC4)n3)ccc21 [Example 46, 6-(4-((5-chloro-2-((1-methyl-1H-benzo[d]imidazol-5-yl)amino)pyrimidin-4-yl)amino)piperidin-1-yl)nicotinonitrile] |
| 89.4 | 0.463 | < 0.3 | 1.8 | 16.1 |  | Cn1nnc2cc(Nc3ncc(Cl)c(NC4CCN(c5ccc(C#N)nn5)CC4)n3)ccc21 [Example 47, 6-(4-((5-chloro-2-((l-methyl-1H-benzo[d][1,2,3]triazol-5-yl)amino)pyrimidin-4-yl)amino)piperidin-1-yl)pyridazine-3-carbonitrile] |
| 44.6 | 0.928 | < 0.3 | 0.617 | 46.9 |  | Cc1nc2cc(Nc3ncc(Cl)c(NC4CCN(c5ccc(C#N)cn5)CC4)n3)ccc2n1C [Example 48, 6-(4-((5-chloro-2-((1,2-dimethyl-1H-benzo[d]imidazol-5-yl)amino)pyrimidin-4-yl)amino)piperidin-1-yl)nicotinonitrile] |

Continued, molecule first:

| SMILES | CLint scaled at 5 μM [1] [mL/min/kg] | half-life at 5 μM [1, 3] [h] | IC50 (JAK1 (h)) [nM] | half-life at 5 μM [2] [h] | CLint scaled at 5 μM [2] [mL/min/kg] | Rat T1/2 [1, 3] |
| --- | --- | --- | --- | --- | --- | --- |
| CCC1CN(c2ccc(C#N)cn2)CCC1Nc1nc(Nc2ccn3c(C)cnc3c2)ncc1Cl (stereo not drawn) [Example 2, 6-(4-((5-chloro-2-((3-methylimidazo[1,2-a]pyridin-7-yl)amino)pyrimidin-4-yl)amino)-3-ethylpiperidin-1-yl)nicotinonitrile] | 52.4 | 0.789 | 1 | 0.603 | 48.1 |  |
| CCC1CN(c2ccc(C#N)nn2)CCC1Nc1nc(Nc2ccn3c(C)cnc3c2)ncc1Cl (stereo not drawn) [Example 3, 6-(4-((5-chloro-2-((3-methylimidazo[1,2-a]pyridin-7-yl)amino)pyrimidin-4-yl)amino)-3-ethylpiperidin-1-yl)pyridazine-3-carbonitrile] |  |  | 0.6 | 0.938 | 30.9 | ∞ |
| Cc1cnc2cc(Nc3ncc(Cl)c(NC4CCN(c5ccc(C#N)nn5)CC4)n3)ccn12 [Example 12, 6-(4-((5-chloro-2-((3-methylimidazo[1,2-a]pyridin-7-yl)amino)pyrimidin-4-yl)amino)piperidin-1-yl)pyridazine-3-carbonitrile] | 13.4 | 3.1 | 0.4 | 1.95 | 14.9 |  |
| N#Cc1ccc(N2CCC(Nc3nc(Nc4ccn5c(C(F)F)nnc5c4)ncc3Cl)CC2)nc1 [Example 30, 6-(4-((5-chloro-2-((3-(difluoromethyl)-[1,2,4]triazolo[4,3-a]pyridin-7-yl)amino)pyrimidin-4-yl)amino)piperidin-1-yl)nicotinonitrile] | 30.8 | 1.34 | 0.9 | 2.1 | 13.8 |  |
| Cc1nc2cc(Nc3ncc(Cl)c(NC4CCN(c5ccc(C#N)cn5)CC4)n3)ccn2n1 [Example 32, 6-(4-((5-chloro-2-((2-methyl-[1,2,4]triazolo[1,5-a]pyridin-7-yl)amino)pyrimidin-4-yl)amino)piperidin-1-yl)nicotinonitrile] |  |  | 0.5 |  |  |  |
| CC(C)(O)c1nc2cc(Nc3ncc(Cl)c(NC4CCN(c5ccc(C#N)cn5)CC4)n3)ccn2n1 [Example 39, 6-(4-((5-chloro-2-((2-(2-hydroxypropan-2-yl)-[1,2,4]triazolo[1,5-a]pyridin-7-yl)amino)pyrimidin-4-yl)amino)piperidin-1-yl)nicotinonitrile] | 10.1 | 4.1 | 0.6 | 2.01 | 14.4 |  |
| CC(C)(O)c1nnc2cc(Nc3ncc(Cl)c(NC4CCN(c5ccc(C#N)cn5)CC4)n3)ccn12 [Example 40] | 44.7 | 0.926 | < 0.3 | 6.01 | 4.8 |  |
